Columns and labels:
[1] = test system: human acute monocytic leukemia cell line THP-1; experiment: IL-1β production in LPS/PMA-activated THP-1 cells (ELISA); type: cell-based; details: THP-1, 24 h pre-incubation with 0.1 to 25 μM PTSO, then 1 μg/ml LPS and 1 μM PMA, FIG. 3
Experimental: (§1) The effects of different concentrations of PTSO on cytokine production (IL-1β and IL-6) in the human acute monocytic leukemia cell line THP-1 activated by lipopolysaccharide (LPS) and phorbol 12-myristate 13-acetate (PMA) were evaluated. Of note, IL-1β and IL-6 cytokines have been reported to play a key role in the activated immune response that takes place in different inflammatory and/or immune conditions.
The human acute monocytic leukemia cell line THP-1 was obtained from the Cell Culture Unit of the University of Granada (Granada, Spain) (ECACC reference number: 88081201). These cells were cultured in Roswell Park Memorial Institute (RPMI) 1640 medium (Sigma, St Louis, Mo., USA) supplemented with 10% fetal bovine serum (Sigma), 2 mM glutamine and 0.05 mM mercaptoethanol in a humidified 5% carbon dioxide (CO2) atmosphere at 37° C. The cultured cells were seeded onto 24-well plates at a density of 5×10^5 cells/ml and pre-incubated for twenty four (24) hours with the different concentrations of the test compound (ranging from 0.1 to 25 μM of PTSO), and then stimulated with 1 μg/ml LPS and 1 μM phorbol 12-myristate 13-acetate (PMA). […]

[2] = test system: human acute monocytic leukemia cell line THP-1; experiment: IL-6 production in LPS/PMA-activated THP-1 cells (ELISA); type: cell-based
Experimental: as §1
The human acute monocytic leukemia cell line THP-1 was obtained from the Cell Culture Unit of the University of Granada (Granada, Spain) (ECACC reference number: 88081201). These cells were cultured in Roswell Park Memorial Institute (RPMI) 1640 medium (Sigma, St Louis, Mo., USA) supplemented with 10% fetal bovine serum (Sigma), 2 mM glutamine and 0.05 mM mercaptoethanol in a humidified 5% carbon dioxide (CO2) atmosphere at 37° C. The cultured cells were seeded onto 24-well plates at a density of 5×10^5 cells/ml and pre-incubated for twenty four (24) hours with the different concentrations of the test compound (ranging from 0.1 to 25 μM of PTSO), and then stimulated with 1 μg/ml LPS and 1 μM phorbol 12-myristate 13-acetate (PMA). After twenty-four hours, the supernatants were collected and centrifuged at 1,000 g for 10 min, and then stored at −80° C. for the determination of IL-1β and IL-6 levels by an enzyme-linked immunosorbent assay (ELISA) (GE Healthcare, Little Chalfont, UK).

[3] = test system: human epithelial colorectal adenocarcinoma cells (CACO-2); experiment: IL-8 production in IL-1β-activated CACO-2 cells (ELISA); type: cell-based; details: Caco-2, 24 h pre-incubation with 0.1 to 25 μM PTSO, then 1 ng/ml IL-1β, FIG. 5
Experimental: The effects of different concentrations of PTSO on cytokine production (IL-8) in the epithelial cell line human epithelial colorectal adenocarcinoma cells (CACO-2) activated by IL-1β were evaluated. IL-8 acts as a neutrophil attractant, which participates in the neutrophil infiltration that occurs in mucosal sites affected by an inflammatory process.
The human colonic adenocarcinoma cell line CACO-2 was obtained from the Cell Culture Unit of the University of Granada (Granada, Spain) (ECACC reference number: 86010202). Cells from the human colonic adenocarcinoma cell line CACO-2 were cultured in RPMI 1640 (Sigma) supplemented with 10% fetal bovine serum (Sigma), 2 mM glutamine and 0.05 mM mercaptoethanol in a humidified 5% CO2 atmosphere at 37° C. The cultured cells were seeded onto 24-well plates until confluence and pre-incubated for twenty-four hours (24 hr) with the different concentrations of the test compound (ranging from 0.1 to 25 μM of PTSO), and then stimulated with 1 ng/ml IL-1β. […] The effects of the different concentrations of PTSO on cell viability were assessed by using the methylthiazol terazolium (MTT) assay (Promega), following the same protocol of incubation of the test compound similar to that described above.

[4] = test system: human T cell line JURKAT E6.1; experiment: IFN-γ production in ionomycin/PMA-stimulated JURKAT E6.1 cells (ELISA); type: cell-based; details: JURKAT E6.1, 2 and 24 h pre-incubation with 0.1 to 25 μM PTSO, then 40 nM ionomycin and 0.5 μM PMA, FIG. 6
Experimental: The human T cell line JURKAT E6.1 was obtained from the Cell Culture Unit of the University of Granada (Granada, Spain) (ECACC reference number: 88042803). Cells from the human T cell line JURKAT E6.1 were cultured in RPMI 1640 (Sigma) supplemented with 10% fetal bovine serum (Sigma), 2 mM glutamine and 0.05 mM mercaptoethanol in a humidified 5% CO2 atmosphere at 37° C. The cultured cells from the human T cell line JURKAT E6.1 were seeded onto 24-well plates at the concentration of 500,000 cells/ml and pre-incubated for 2 and 24 hours with the different concentrations of the test compound (ranging from 0.1 to 25 μM of PTSO), and then stimulated with 40 nM ionomycin and 0.5 μM of PMA. After twenty four hours (24 hours), the supernatants were collected and centrifuged at 1,000 g for 10 min, and stored at −80° C. for the determination of IFN-γ levels by ELISA (GE Healthcare).

THP-1 cells = experiment: Cell viability (MTT assay), THP-1; type: cell-based, human; details: THP-1, concentrations up to 25 μM
CACO-2 cells = experiment: Cell viability (MTT assay), CACO-2; type: cell-based, human; details: CACO-2, concentrations up to 25 μM
Experimental: The human colonic adenocarcinoma cell line CACO-2 was obtained from the Cell Culture Unit of the University of Granada (Granada, Spain) (ECACC reference number: 86010202). Cells from the human colonic adenocarcinoma cell line CACO-2 were cultured in RPMI 1640 (Sigma) supplemented with 10% fetal bovine serum (Sigma), 2 mM glutamine and 0.05 mM mercaptoethanol in a humidified 5% CO2 atmosphere at 37° C. The cultured cells were seeded onto 24-well plates until confluence and pre-incubated for twenty-four hours (24 hr) with the different concentrations of the test compound (ranging from 0.1 to 25 μM of PTSO), and then stimulated with 1 ng/ml IL-1β. After twenty four hours (24 hr), the supernatants were collected and centrifuged at 1,000 g for 10 min, and stored at −80° C. for the determination of IL-8 levels by ELISA (GE Healthcare). The effects of the different concentrations of PTSO on cell viability were assessed by using the methylthiazol terazolium (MTT) assay (Promega), following the same protocol of incubation of the test compound similar to that described above.

Jurkat cells = experiment: Cell viability (MTT assay), Jurkat; type: cell-based, human; details: concentrations up to 25 μM

CCCSS(=O)(=O)CCC [PTSO, 1-propylsulfonylsulfanylpropane]
production of IL-1β [1]: reduce the production of IL-1β in a dose-dependent manner
production of IL-6 ([2]; THP-1, 24 h pre-incubation with 0.1 to 25 μM PTSO, then 1 μg/ml LPS and 1 μM PMA, 24 h, FIG. 4): can modulate the production of IL-6
production of IL-6 at 0.1 µM ([2]; THP-1 cells, at 0.1 µM): can increase the production of IL-6
production of IL-6 at more than 1 mM ([2]; THP-1 cells, starting from more than 1 mM dose): a clear immunosuppressive effect is observed
production of IL-8 cytokine [3]: demonstrated immunomodulatory activity on the production of IL-8 cytokine
production of interferon gamma (IFN-γ) [4]: modulating immune function on the production of interferon gamma (IFN-γ)
cell viability (THP-1 cells): did not significantly affect the viability
cell viability (CACO-2 cells): did not significantly affect the viability
cell viability (Jurkat cells): did not significantly affect the viability
